Measured values: patent publication US20220370464A1, “COMPOSITIONS AND METHODS OF TREATING OR PREVENTING OCULAR INFECTIONS WITH FILOCICLOVIR” (Microbiotix, Inc., priority 2019, published 2022)
Read-outs that look alike come from different tables or passages of the source.

How the values were obtained:
AdV5 [1] = assay: Plaque reduction antiviral IC50 assay in A549, AdV5; assay type: cell-based, adenovirus 5; details: Human mastadenovirus C
Description: (§1) The effectiveness of filociclovir to inhibit a number of adenovirus strains associated with conjunctivitis were tested in an in vitro assay. To determine the in vitro IC50 concentrations, i.e., the concentration of filociclovir that inhibits adenovirus plaque formation by 50%, filociclovir and cidofovir (CDV) were tested against a panel of 7 ocular types of adenovirus.
(§2) 42 A549 24-well multiplates (1 per each drug and each virus strain) were prepared. 7 adenovirus serotypes were tested at a time. Virus dilutions from known titer of stock viruses (approx. 100 PFU/0.1 ml) were prepared with AdV3 L, AdV4 H, AdV5 M, AdV7a J, AdV8 E, AdV 19/64 K, and AdV37 ATCC. 0.1 ml (containing approx. 100 PFU) of each of the 7 viruses were plated onto all 24 wells of an A549 multiplate and incubated at 37° C. in a 5% CO2 water-vapor atmosphere for 3 hours.
(§3) Dilutions of filociclovir and cidofovir were prepared at 400, 40, 4.0, 0.4, 0.04, and 0.004 μM in 2× nutrient tissue culture media, following the dilution protocol: 7.5 ml of each of filociclovir and cidofovir dilution was added to a tube and 22.5 ml of methylcellulose in outgrowth medium (OG) was then added to each tube. 1 ml of each filociclovir and cidofovir dilutions was added to an additional 15 ml tube and 3 ml of OG was added to each tube. This was the overlay for the Adv8 plates. Normal methylcellulose overlay medium without any drug was used for the control wells for each plate.
(§4) For each virus plate, 3 wells were overlaid with each of the 6 final filociclovir and cidofovir concentrations (100, 10, 1.0, 0.1, 0.01, and 0.001 μM) and 6 wells with the control media. Plates were incubated at 37° C. in a 5% CO2 water-vapor atmosphere until plaques were visible. When plaques became visible, plates were stained with gentian violet and plaques were counted at 25λ using a dissecting microscope. The IC50 concentrations were determined from Fitted Line Plot regression analysis using Minitab. All assays were performed in triplicate.

AdV64 = assay: Plaque reduction antiviral IC50 assay in A549, AdV64; assay type: cell-based, adenovirus 19/64; details: unidentified adenovirus
Description: as §1, §2, §3, §4

AdV8 = assay: Plaque reduction antiviral IC50 assay in A549, AdV8; assay type: cell-based, adenovirus 8
Description: as §1, §2, §3, §4

AdV7a = assay: Plaque reduction antiviral IC50 assay in A549, AdV7a; assay type: cell-based, adenovirus 7a; details: unidentified adenovirus
Description: as §1, §2, §3, §4

Adenovirus 5 (AdV5) = assay: Cytopathic effects (CPE) reduction assay, AdV5 in HFF cells, 384-well; assay type: cell-based, human adenovirus 5 (AdV5); details: for selectivity ratio: human, adenovirus 5, HFF cells, read-out: SI (selective index, CC50/EC50)
Description: Antiviral and cytotoxicity data were obtained in a series of three to five separate experiments for each virus to provide an accurate estimate of antiviral activity and statistical data. Each assay included positive and negative control compounds as well as infected and uninfected controls to ensure the integrity of the experiment.
The CPE reduction assays were performed in monolayers of human foreskin fibroblast (HFF) cells (5000/well) in 384-well plates in assay media consisting of MEM with Earle's salts, 2% FBS and standard concentrations of L-glutamine, penicillin and gentamycin. 5000 cells were seeded in 384-well microtiter plates and incubated at 37° C. in a humidified 5% CO2 incubator for 24 hours to allow for formation of confluent monolayers.
Cell monolayers were infected at a multiplicity of infection (MOI) of approximately 0.005 PFU/cell with virus strains including AdV5. […] Cytopathology was determined by the addition of CellTiter-Glo® reagent (Promega, Madison, Wis.). Concentrations of antiviral test compounds sufficient to reduce CPE by 50% (EC50) were interpolated from the experimental data using standard methods in Microsoft® Excel.

AdV5 [2] = assay: Adenovirus/NZW rabbit ocular model; assay type: in vivo, New Zealand White (NZW) rabbit
Description: The ability of filociclovir to inhibit adenovirus-related conjunctivitis was tested in a New Zealand White (NZW) rabbit ocular model.
20 NZW rabbits (1.1-1.4 kg) were given general anesthesia with ketamine & xylazine, topical anesthesia with proparacaine, and corneal scarification (12 cross-hatched strokes of a #25 needle) followed by inoculation in both eyes with 50 μl of […] of AdV5 M (6.0×10^8 PFU/ml). Eyes were closed and gently rubbed for 5 seconds to ensure contact of the virus on all ocular surfaces. All rabbits were treated with analgesia in the form of intramuscular injections of ketoprofen (1.5 mg/kg).
Beginning 2 hours after inoculation, all eyes were cultured for virus. Following topical anesthesia with proparacaine, a single cotton-tipped swab was placed into the lower fornix of each eye, rolled over the cornea into the upper fornix to recover adenovirus from the tear film and corneal and conjunctival surfaces. The swabs from each eye were placed individually into tubes containing 1 ml of outgrowth media and were frozen at −80° C. pending plaque assay.
On Day 1, the rabbits were divided into 4 treatment groups for drug administration as set forth in the chart below. The four treatment groups were 0.5% Filociclovir; 0.1% Filociclovir; 0.5% cidofovir; and the negative vehicle control (10% 2-Hydroxpropyl)-β-cyclodextrin, 0.2% cremophore).
Treatments began on Day 1 and drops were administered with at least a 2-hour interval between drops. The eyes of each rabbit were cultured for virus on days 1, 3, 4, 5, 7, 9, 11, and 14 post-inoculation (PI) at least 1 hour after the final drop. At various times during the course of the experiment, AdV5 titers were determined on A549 cell monolayers using a standard plaque assay. The ocular cultures to be titered were thawed, diluted (1:10) and inoculated onto A549 monolayers. The virus was adsorbed for 3 hours. Following adsorption, 1 ml of media plus 0.5% methylcellulose was added to each well, and the plates were incubated at 37° C. in a 5% CO2-water vapor atmosphere. After 7 days incubation, the cells were stained with 0.5% gentian violet, and the numbers of plaques were counted under a dissecting microscope (25λ). The viral titers were then calculated and expressed as plaque-forming units per milliliter (PFU/ml). The data were analyzed statistically using True Epistat and/or Minitab statistical software. Outcome measures included Daily AdV5-Positive Cultures per Total (FIG. 9), Duration of Shedding (FIG. 10) and Daily Viral Titers (FIG. 11). Significance was established at the p≤0.05 confidence level.

ocular AdV infections = details: literature, cited from earlier work
HHV-8 = details: γ Herpesvirus, cited from earlier work
VZV = details: α Herpesvirus, cited from earlier work
EBV = details: γ Herpesvirus, cited from earlier work
CMV = details: β Herpesvirus, cited from earlier work
AdV7 = assay: CPE reduction assay, adenovirus 7; assay type: cell-based
Description: Similar experiments were carried out with filociclovir against adenovirus 6, adenovirus 7, and adenovirus 8.

BK Virus = details: Polyomavirus, cited from earlier work
[3] = 0.5% topical 2 times daily for 7 days, compared with Vehicle control
[4] = 0.1% topical 4 times daily for 10 days, compared with Vehicle control
[5] = 0.5% filociclovir compared with 0.5% cidofovir
[6] = 0.5% filociclovir compared with the 0.1% filociclovir group
[7] = 0.5% topical 4 times daily for 10 days, compared with Vehicle control

`Nc1ccn(C[C@@H](CO)OCP(=O)(O)O)c(=O)n1` [CDV, cidofovir, reference compound] gave an IC50 (AdV5 [1]; read-out: Mean IC50) of 30300 nM, an IC50 (AdV5 [1]; read-out: Median IC50) of 38800 nM and an IC50 (AdV64; read-out: Mean IC50) of 4090 nM. For the same molecule, the IC50 (AdV64; read-out: Median IC50) was 4940 nM, the IC50 (AdV8; read-out: Mean IC50) was 487 nM and the IC50 (AdV8; read-out: Median IC50) was 474 nM. The IC50 (AdV7a; read-out: Mean IC50) was 1810 nM, the IC50 (AdV7a; read-out: Median IC50) was 617 nM and the EC50 (Adenovirus 5 (AdV5); Human mastadenovirus C, AdV 384 Well CPE, HFF cells, average and SD from five independent experiments) was 4000 ± 2000 nM. For the same molecule, the selectivity ratio (Adenovirus 5 (AdV5)) was 24, the “adenovirus positive cultures per total (FIG. 9)” value (AdV5 [2]; [3]) was “fewer number of adenovirus positive cultures per total on Days 7, 9, and 11” and the “adenovirus titers (FIG. 11)” value (AdV5 [2]; [3]) was “significantly lower adenovirus titers on Days 3, 4, 5, 7, 9, and 11”. For the same molecule, the “duration of shedding (FIG. 10)” value (AdV5 [2]; [3]) was “shorter duration of shedding”, the ocular toxicity (ocular AdV infections; even at low doses) was “substantial ocular toxicity” and the “improvement in the symptoms or course of the disease” value (ocular AdV infections; ocular AdV infections) was “not exhibited a statistically significant improvement”.
In the case of `Nc1nc2c(ncn2/C=C2/CC2(CO)CO)c(=O)[nH]1` [Filociclovir, 2-amino-9-{(Z)-[2,2-bis(hydroxymethyl)cyclopropylidene]methyl}-3,9-dihydro-6H-purin-6-one], the EC50 (HHV-8; listed as filociclovir) is given as at most 10000 nM, the EC50 (HHV-8) is given as 5600 ± 5000 nM and the EC50 (VZV; listed as filociclovir) is given as at most 10000 nM. For the same molecule, the EC50 (VZV) was 1500 ± 1600 nM, the IC50 (AdV5 [1]; read-out: Mean IC50) was 4680 nM and the IC50 (AdV5 [1]; read-out: Median IC50) was 4620 nM. For the same molecule, the EC50 (EBV; listed as filociclovir) was at most 10000 nM, the EC50 (EBV) was 1000 ± 940 nM and the EC50 (CMV; listed as filociclovir) was at most 10000 nM. For the same molecule, the EC50 (CMV) was 1000 ± 600 nM, the IC50 (AdV64; read-out: Mean IC50) was 1860 nM and the IC50 (AdV64; read-out: Median IC50) was 424 nM. For the same molecule, the CC50/EC50 (AdV7) was over 144, the IC50 (AdV8; read-out: Mean IC50) was 496 nM and the IC50 (AdV8; read-out: Median IC50) was 485 nM. The EC50 (BK Virus; listed as filociclovir) was at most 50000 nM, the EC50 (BK Virus) was 34000 ± 17000 nM and the IC50 (AdV7a; read-out: Mean IC50) was 2120 nM. For the same molecule, the IC50 (AdV7a; read-out: Median IC50) was 769 nM, the “concentration effective to reduce AdV replication (FIG. 1)” value (Adenovirus 5 (AdV5); AdV5, tested 0.01 to 100 μM, 'as low as') was at least 0.2 µM and the selectivity ratio (Adenovirus 5 (AdV5)) was 43. The “adenovirus positive cultures per total (FIG. 9)” value (AdV5 [2]; [4]) was “fewer number of adenovirus positive cultures per total on Days 7, 9, and 11”, the “adenovirus titers (FIG. 11)” value (AdV5 [2]; [4]) was “significantly lower adenovirus titers on Days 1, 3, 4, 5, 7, 9, and 11” and the “duration of shedding (FIG. 10)” value (AdV5 [2]; [4]) was “shorter duration of shedding”. The “adenovirus positive cultures per total” value (AdV5 [2]; [5]) was “fewer number of adenovirus positive cultures per total on Day 4”, the adenovirus titers (AdV5 [2]; [5]) was “significantly lower adenovirus titers on Days 1, 3, 4, and 5” and the “adenovirus positive cultures per total (FIG. 9)” value (AdV5 [2]; [6]) was “fewer number of adenovirus positive cultures per total on Day 4”. For the same molecule, the “adenovirus titers (FIG. 11)” value (AdV5 [2]; [6]) was “significantly lower adenovirus titers on Days 3, 4, and 5”, the “adenovirus positive cultures per total (FIG. 9)” value (AdV5 [2]; [7]) was “fewer number of adenovirus positive cultures per total on Days 4, 5, 7, 9, and 11” and the “adenovirus titers (FIG. 11)” value (AdV5 [2]; [7]) was “significantly lower adenovirus titers on Days 1, 3, 4, 5, 7, 9, and 11”. For the same molecule, the “duration of adenovirus shedding (FIG. 10)” value (AdV5 [2]; [7]) was “shorter duration of adenovirus shedding”.
